Experimental data: paper PMC10296036, “Inhibitory Potential of Synthetic Amino Acid Derivatives against Digestive Enzymes as Promising Hypoglycemic and Anti-Obesity Agents” (Biomolecules, 2023)
“And” between values parts separate entries of the source, which are not always exact repeats. Equal values may be shown once. Marks after values point to notes of the source that are not given here.

Assays:
[1] = target: T1, porcine pancreatic α-amylase (Sus scrofa, UniProt P00690); assay: Pancreatic α-amylase inhibition assay (I% and IC50); type: biochemical; details: for IC50: mean ± S.E.M., n = 3, starch substrate, 37 °C, pH 7.0
T1 construct: purchased Sigma-Aldrich
T1 sequence (P00690 16-511): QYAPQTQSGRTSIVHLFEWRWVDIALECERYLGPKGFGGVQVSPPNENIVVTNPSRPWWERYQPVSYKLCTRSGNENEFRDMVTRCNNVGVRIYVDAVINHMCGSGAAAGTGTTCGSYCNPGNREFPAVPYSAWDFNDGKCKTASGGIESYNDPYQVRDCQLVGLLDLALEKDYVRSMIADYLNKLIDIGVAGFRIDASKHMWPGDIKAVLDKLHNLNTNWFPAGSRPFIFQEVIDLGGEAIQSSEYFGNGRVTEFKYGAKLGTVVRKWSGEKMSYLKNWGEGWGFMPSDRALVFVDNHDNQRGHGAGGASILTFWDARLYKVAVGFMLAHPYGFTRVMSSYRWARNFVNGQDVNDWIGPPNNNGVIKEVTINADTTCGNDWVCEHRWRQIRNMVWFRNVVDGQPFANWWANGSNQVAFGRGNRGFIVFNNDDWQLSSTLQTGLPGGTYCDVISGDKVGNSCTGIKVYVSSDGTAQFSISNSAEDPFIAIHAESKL
Description: (§1) The pancreatic α-amylase inhibition assay was carried out according to Freitas et al. with some modifications. The porcine pancreatic α-amylase (1 mg/mL) was incubated in 50 mM Tris-HCl buffer (pH 7.0) containing 10 mM CaCl2 and 1% starch. […] Afterward, microplates were pre-incubated for 10 min in a water bath at 37 °C. […] The reaction was stopped using an ice bath. All reactions were carried out in triplicate.

α-glucosidase [2] = assay: α-Glucosidase inhibition assay (I% and IC50); details: for Inhibitory action against α-glucosidase (in words): tested concentration range
[3] = target: T1, porcine pancreatic α-amylase; assay: Kinetic parameters and Lineweaver-Burk analysis, pancreatic α-amylase; type: biochemical; details: for Inhibition mechanism on pancreatic α-amylase: from Km, Vmax and Lineweaver-Burk plots; for Vmax (pancreatic α-amylase in presence of inhibitor) / Slope (Lineweaver-Burk, pancreatic α-amylase): inhibitor concentration: acarbose 387, PPC80 730, PPC82 795, PPC84 870, PPC89 675, PPC101 532 µM; for Vmax (pancreatic α-amylase in presence of inhibitor): no inhibitor Vmax 100.70 ± 0.34; for Slope (Lineweaver-Burk, pancreatic α-amylase): no inhibitor slope 0.59
Description: as §1
(§2) Kinetic parameters were determined using the same experimental conditions as described above for each enzyme. […] The enzyme concentrations were maintained as described above. […] The absorbance values were converted into product concentration (µmol/L) using standard curves of glucose (α-amylase) and p-nitrophenol (pancreatic lipase and α-glucosidase). The value of the initial velocity (v0) of enzymatic reactions was estimated to create the “v0 versus substrate concentration” graph. Kinetic constants (Km and Vmax) and slope were calculated, and the inhibition model was verified using Lineweaver–Burk plots.

α-glucosidase [4] = assay: Kinetic parameters and Lineweaver-Burk analysis, α-glucosidase; type: biochemical; details: for Inhibition mechanism on α-glucosidase: from Km, Vmax and Lineweaver-Burk plots; for Vmax (α-glucosidase in presence of inhibitor) / Slope (Lineweaver-Burk, α-glucosidase): inhibitor concentration: acarbose 387, PPC84 870, PPC89 675, PPC101 532 µM; for Vmax (α-glucosidase in presence of inhibitor): no inhibitor Vmax 62.42 ± 1.14; for Slope (Lineweaver-Burk, α-glucosidase): no inhibitor slope 2.93
Description: [20] with some modifications. […] The reaction was stopped in an ice bath. All enzyme reactions were carried out in triplicate. […] Kinetic parameters were determined using the same experimental conditions as described above for each enzyme. […] The enzyme concentrations were maintained as described above. […] The absorbance values were converted into product concentration (μmol/L) using standard curves of glucose (α-amylase) and p-nitrophenol (pancreatic lipase and α-glucosidase). The value of the initial velocity (v0) of enzymatic reactions was estimated to create the “v0 versus substrate concentration” graph. Kinetic constants (Km and Vmax) and slope were calculated, and the inhibition model was verified using Lineweaver-Burk plots.

[5] = target: T2, porcine pancreatic lipase (Sus scrofa, UniProt P00591); assay: Pancreatic lipase inhibition assay (I% and IC50); type: biochemical; details: for Inhibitory action on pancreatic lipase (in words): tested concentration range; for IC50: mean ± S.E.M., n = 3, substrate p-nitrophenol palmitate, 37 °C, pH 8.0
T2 construct: purchased Sigma-Aldrich
T2 sequence (P00591 1-450): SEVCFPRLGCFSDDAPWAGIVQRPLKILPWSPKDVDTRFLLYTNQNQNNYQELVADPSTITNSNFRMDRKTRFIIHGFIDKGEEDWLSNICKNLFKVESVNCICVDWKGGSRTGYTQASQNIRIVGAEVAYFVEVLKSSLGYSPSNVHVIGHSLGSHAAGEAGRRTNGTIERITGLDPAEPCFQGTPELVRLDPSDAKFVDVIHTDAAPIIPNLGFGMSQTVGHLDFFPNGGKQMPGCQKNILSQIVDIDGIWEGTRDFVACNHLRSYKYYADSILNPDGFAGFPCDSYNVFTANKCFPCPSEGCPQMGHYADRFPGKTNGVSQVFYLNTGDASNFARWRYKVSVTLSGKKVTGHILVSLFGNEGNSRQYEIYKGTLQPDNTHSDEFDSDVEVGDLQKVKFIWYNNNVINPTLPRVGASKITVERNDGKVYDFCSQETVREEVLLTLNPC
Description: (§3) The pancreatic lipase inhibition assay was performed according to Santos et al. with some modifications. The porcine pancreatic lipase (10 g/L) was incubated in 50 mmol/L Tris-HCl buffer (pH 8.0) containing 10 mM CaCl2 and 25 mM NaCl. The p-nitrophenol palmitate substrate (8 mM) was dissolved in 0.5% w/v Triton-X 100. […] All reactions were carried out in triplicate.

[6] = target: T2, porcine pancreatic lipase; set-up: method as in PMID 12771334; details: 100 mg/mL; cited from earlier work
[7] = target: T2, porcine pancreatic lipase; assay: Kinetic parameters and Lineweaver-Burk analysis, pancreatic lipase; type: biochemical; details: for Inhibition mechanism on pancreatic lipase: from Km, Vmax and Lineweaver-Burk plots; for Vmax (pancreatic lipase in presence of inhibitor) / Slope (Lineweaver-Burk, pancreatic lipase): inhibitor concentration: orlistat 101 µM, PPC80 146 µM, PPC82 159 µM, PPC84 174 µM; for Vmax (pancreatic lipase in presence of inhibitor): no inhibitor Vmax 68.65 ± 0.41; for Slope (Lineweaver-Burk, pancreatic lipase): no inhibitor slope 2.77
Description: as §3, §2

Row | IC50 [1] [µM] | Inhibition mechanism on pancreatic α-amylase [3] | Vmax (pancreatic α-amylase in presence of inhibitor) [3] | Slope (Lineweaver-Burk, pancreatic α-amylase) [3] [min⁻¹] | Inhibition mechanism on α-glucosidase (α-glucosidase [4]) | Slope (Lineweaver-Burk, α-glucosidase) (α-glucosidase [4]) [min⁻¹] | Inhibition mechanism on pancreatic lipase [7] | Slope (Lineweaver-Burk, pancreatic lipase) [7] [min⁻¹] | IC50 [5] [µM] | Compound | Vmax (α-glucosidase in presence of inhibitor) (α-glucosidase [4]) | Vmax (pancreatic lipase in presence of inhibitor) [7] | also measured
1 | 162 ± 1.73 | competitive-type inhibition mechanism | 100.00 ± 1.55 ^a µM/min | 0.70 | competitive inhibitors | 4.94 |  |  |  | CCCCCCCCCCCCNCCCCNC(=O)[C@@H](NC(=O)OC(C)(C)C)[C@@H](C)CC [PPC101] | 63.09 ± 1.45 µM/min and 63.09 ± 1.45 ^a µM/min |  | inhibition at 532 µM ([1]; 532 µM): ~86%; Inhibition of α-glucosidase (α-glucosidase [2]; 67 µM): ~64%; IC50 (α-glucosidase [2]; read-out: IC50 α-Glucosidase, mean ± S.E.M., n = 3, substrate p-nitrophenyl-α-D-glucopyranoside, 37 °C, pH 7.0): 51 ± 1.73 µM; Inhibitory action on pancreatic lipase (in words) [5]: did not show inhibitory action
2 |  |  |  |  |  |  |  |  |  | Polylysine |  |  | Inhibition of porcine pancreatic lipase activity [6]: 80%
3 | 519 ± 20 | competitive-type inhibition mechanism | 99.70 ± 1.20 ^a µM/min | 0.72 |  |  | competitive mechanism | 5.79 | 167 ± 6.25 | CCCCCCNC(=O)[C@@H](NC(=O)OC(C)(C)C)[C@@H](C)CC [PPC82] |  | 69.13 ± 0.57 µM/min and 69.13 ± 0.57 ^a µM/min | inhibition at 1590 µM ([1]; 1590 µM): ~94%; Inhibitory action against α-glucosidase (in words) (α-glucosidase [2]): did not show inhibitory action; inhibition at 477 µM ([5]; 477 µM, read-out: Inhibitory effect on pancreatic lipase activity): ~86%
4 | 171 ± 13.6 | competitive-type inhibition mechanism | 99.73 ± 1.77 ^a µM/min | 0.76 | competitive inhibitors | 4.11 |  |  |  | CCCCCCCCCCNC(=O)[C@@H](NC(=O)OC(C)(C)C)[C@@H](C)CC [PPC89] | 62.30 ± 1.33 µM/min and 62.30 ± 1.33 ^a µM/min |  | Inhibitory effect on pancreatic α-amylase (in words) ([1]; 405 µM, compared with acarbose 620 µM): same inhibitory effect as acarbose; inhibition at 675 µM ([1]; 675 µM): ~90%; Inhibition of α-glucosidase (α-glucosidase [2]; 674 µM): ~78%; Inhibitory action on pancreatic lipase (in words) [5]: did not show inhibitory action

Row | Compound | IC50 [1] [µM] | Inhibition mechanism on pancreatic α-amylase [3] | Vmax (pancreatic α-amylase in presence of inhibitor) [3] | Slope (Lineweaver-Burk, pancreatic α-amylase) [3] [min⁻¹] | Inhibition mechanism on α-glucosidase (α-glucosidase [4]) | Slope (Lineweaver-Burk, α-glucosidase) (α-glucosidase [4]) [min⁻¹] | Inhibition mechanism on pancreatic lipase [7] | Slope (Lineweaver-Burk, pancreatic lipase) [7] [min⁻¹] | IC50 [5] [µM] | Vmax (α-glucosidase in presence of inhibitor) (α-glucosidase [4]) | Vmax (pancreatic lipase in presence of inhibitor) [7] | also measured
5 | CCCCCCCCCCC[C@@H](C[C@@H]1OC(=O)[C@H]1CCCCCC)OC(=O)[C@H](CC(C)C)NC=O [Orlistat, orlistat, reference compound] |  |  |  |  |  |  |  | 4.10 |  |  | 68.34 ± 0.40 µM/min and 68.34 ± 0.40 ^a µM/min | inhibition at 807 µM ([5]; 807 µM, read-out: Inhibitory effect on pancreatic lipase activity): 60%
6 | CC[C@H](C)[C@H](NC(=O)OC(C)(C)C)C(=O)NCCCN [PPC84] | 493 ± 11 | non-competitive or mixed inhibition mechanism | 94.35 ± 0.51 µM/min | 0.80 | competitive inhibitors | 4.29 | mixed or non-competitive inhibition mechanism | 3.19 | 1020 ± 20.3 | 62.90 ± 0.60 µM/min and 62.90 ± 0.60 ^a µM/min | 62.76 ± 0.3 µM/min and 62.76 ± 0.35 µM/min | inhibition at 870 µM ([1]; 870 µM): ~74%; Inhibition of α-glucosidase (α-glucosidase [2]; 435 µM): ~66%; inhibition at 1392 µM ([5]; 1392 µM, read-out: Inhibitory effect on pancreatic lipase activity): ~62%
7 | CCCCCCCCNC(=O)[C@@H](NC(=O)OC(C)(C)C)[C@@H](C)CC [PPC80] | 276 ± 5.21 | non-competitive or mixed inhibition mechanism | 91.75 ± 0.48 µM/min | 0.89 |  |  | competitive mechanism | 4.65 | 475 ± 8.25 |  | 68.82 ± 0.57 µM/min and 68.82 ± 0.57 ^a µM/min | inhibition at 730 µM ([1]; 730 µM): ~93%; Inhibitory action against α-glucosidase (in words) (α-glucosidase [2]): did not show inhibitory action; inhibition at 584 µM ([5]; 584 µM, read-out: Inhibitory effect on pancreatic lipase activity): ~65%
8 | C[C@H]1O[C@H](O[C@H]2[C@H](O)[C@@H](O)[C@@H](O[C@H]3[C@H](O)[C@@H](O)C(O)O[C@@H]3CO)O[C@@H]2CO)[C@H](O)[C@@H](O)[C@@H]1N[C@H]1C=C(CO)[C@@H](O)[C@H](O)[C@H]1O (some centres unmarked) [Acarbose, acarbose, reference compound] |  |  | 100.30 ± 0.89 ^a µM/min | 0.66 |  |  |  |  |  |  |  | inhibition at 620 µM ([1]; 620 µM): ~86%
